Laboratory results taken from the NIST ThermoML archive (doi:10.1016/j.fluid.2013.02.005).

Key:
[1] = Boiling temperature at pressure P; conditions: 101.33 kPa; Liquid; Ebulliometric method (Recirculating still)
[2] = for surface tension liquid-gas: Maximal bubble pressure; for mass density: 298.15 K, 101.33 kPa, Vibrating tube method; for mass density / vapor or sublimation pressure: Liquid; for vapor or sublimation pressure: Ebulliometric method (Recirculating still)
[3] = refractive index (Na D-line) (dimensionless); conditions: 298.15 K; 101.33 kPa; Liquid; Standard Abbe refractometry
[4] = xn = mol fraction of the nth substance listed; conditions: Maximal bubble pressure

Cc1ccc(C)o1 [2,5-dimethylfuran]
Conditions	Boiling temperature at pressure P [°C]	mass density [kg/m3]	refractive index
[1]	93.68	–	–
[2]	–	895.63	–
[3]	–	–	1.44012

[2]
Conditions	surface tension liquid-gas [mN/m]	vapor or sublimation pressure [kPa]
283.15 K	26.34	–
303.15 K	24.05	–
330.15 K	20.58	–
345.24 K	–	50
357.21 K	–	75
364.37 K	–	94

CC(C)OC(C)C [diisopropyl ether] + Cc1ccc(C)o1
[4], x1 = 1
Conditions	surface tension liquid-gas [mN/m]
283.15 K	18.88
330.15 K	13.88

CC(C)OC(C)C [diisopropyl ether]
Conditions	Boiling temperature at pressure P [°C]	mass density [kg/m3]	refractive index
[1]	68.52	–	–
[2]	–	718.75	–
[3]	–	–	1.36652

[2]
Conditions	surface tension liquid-gas [mN/m]	vapor or sublimation pressure [kPa]
283.15 K	18.88	–
303.15 K	16.7	–
307.64 K	–	30.01
311.53 K	–	35.01
314.98 K	–	40.01
318.08 K	–	45.01
320.94 K	–	50.01
321.03 K	–	50
323.56 K	–	55.01
326 K	–	60.01
328.29 K	–	65.01
330.15 K	13.88	–
330.45 K	–	70.01
332.48 K	–	75.01
332.65 K	–	75
334.41 K	–	80.01
336.23 K	–	85.01
339.57 K	–	94
339.65 K	–	95.01
341.52 K	–	100.89

Cc1ccc(C)o1 [2,5-dimethylfuran] + CC(C)OC(C)C
surface tension liquid-gas [mN/m], [4]
Conditions	283.15 K	330.15 K
x2 = 0	26.34	20.58
x2 = 0.067	24.79	–
x2 = 0.112	24.27	–
x2 = 0.153	–	19.28
x2 = 0.192	–	18.93
x2 = 0.234	23.31	–
x2 = 0.245	–	18.31
x2 = 0.323	22.56	–
x2 = 0.342	–	17.66
x2 = 0.42	21.87	–
x2 = 0.434	–	17.01
x2 = 0.52	21.31	–
x2 = 0.543	–	16.48
x2 = 0.626	20.86	–
x2 = 0.664	–	15.79
x2 = 0.782	–	15.16
x2 = 0.897	–	14.65
